In test [1] the test system is nonglandular gastric ulcers. Put plainly: 42-day 2-period crossover equine health study: gastroscopic nonglandular gastric ulcer number (NGN) and severity (NGS) scores. Type of test: in vivo, horse. Particulars: by Day 14. As to the method:
Eight healthy Thoroughbred and Thoroughbred-cross horses from the Equine Health Studies Program (EHSP) herd were used in this study. The study was performed as a 42-day 2-period crossover using a treatment group (n=8) and an untreated control (n=8).
All horses were stall-confined and fed mixed grass hay and sweet feed (OMOLENE® 100; Gray Summit, Mo.). Horses were assigned to the two treatment groups stratified by gastric ulcer score recorded on day 1 of period 1. Treated horses were fed with a Supplement composition of Example 1 above (40 g, twice daily) added to the sweet feed and control horses received no feed supplement.
Prior to beginning the study, all horses underwent physical examination. From Day 1 to Day 14, all horses were treated with omeprazole (GASTROGARD® paste, Merial Limited, Duluth, Ga.; 4 mg/kg, orally q24 h), then omeprazole was discontinued for the remainder of the study. All the horses remained stall-confined. From Day 28 to Day 35, all the horses underwent feed-deprivation, where they were muzzled and deprived of feed for 24 hours and then fed for 24 hours for a total of 96 hours to induce ulcers.
During the feed-deprivation days, the horses were fed 10% of their normal sweet feed, and the treated horses received the Supplement composition of Example 1 above (SMARTPAK® Equine, Plymouth, Mass.). From Day 35 to Day 42, all the horses returned to their normal diet to allow for recovery. The timelines of the events occurring during the period of the 42-day study were depicted in FIG. 1.
(§1) Gastroscopic examinations were performed on all the horses on Day 0, 14, 28, 35 and 42 and nonglandular gastric ulcer number (NGN) and severity (NGS) scores were assigned by the PI (FMA) who was masked to treatment (FIG. 2) (MacAllister et al. 1997). During gastroscopy, gastric juice was aspirated and pH measured.

A short description of test [2]: Gastric juice pH aspirated during gastroscopy, 42-day crossover study. Type of test: in vivo, horse. To be noted: by Day 14, omeprazole 4 mg/kg orally q24 h. As to the method:
as §1
Gastric juice pH values can be determined as follows: gastric juice of a subject animal is aspirated through the biopsy channel of an endoscope and pH is measured at specified time intervals, particularly 1 hour before and then 1 hour after administration of a therapeutic agent or Supplement composition as disclosed herein. Gastric juice pH values can be compared between the times.

For the next test, the system named is equine ulcers. To be noted: background; cited from earlier work.
The mark [3] stands for this setting: omeprazole paste 4 mg/kg orally q24 h Day 1-14.

Take `COc1ccc2nc([S+]([O-])Cc3ncc(C)c(OC)c3C)[nH]c2c1` (stereo not drawn) [omeprazole]: in test [1] (omeprazole 4 mg/kg orally q24 h, 6/8 horses), the “horses with healed gastric ulcers in each study group” value was 75%. In test [1] (setting [3]), the NGN score result is given as “significantly decreased” and the NGS score entry is reported as “significantly decreased”. Further, the “gastric juice pH” value in test [2] is listed as “increased significantly”. In the test on equine ulcers, the “gastric juice pH value in horses” value is “increased” and the treating equine ulcers result is reported as “effective”.

(Values after patent publication US10076549B2, “Gastric health supplement and methods thereof” (SmartPak Equine LLC, priority 2012, dated 2018).)
